Consider three molecules from paper PMC10057977, “Use of In Vivo Imaging and Physiologically-Based Kinetic Modelling to Predict Hepatic Transporter Mediated Drug–Drug Interactions in Rats” (Pharmaceutics, 2023).

In series [1] the test system is OATP1B. Details: method as in supplement [18]. As to conditions: plasma AUC ratio; ref supplement [18]; cited from earlier work.
The subject of series [2] is rOatp1a4. As to conditions: in vitro, cited from earlier work.
The nature of series [3]: Gadoxetate PBPK model transport parameters. Details: species or system rat. The text has this: A previously developed reduced PBPK model of gadoxetate was used in the current study. The PBPK model (Figure 1) is composed of seven compartments: blood, spleen, splanchnic organs, liver interstitial space, hepatocytes, rest of the body (ROB) vascular, and extravascular space. In the ROB compartment, muscles, fat, bones, and skin, among others, are represented.
A permeability-limited liver model was applied to describe the gadoxetate active uptake into the hepatocytes, as per Equation (1). (1) Vliv,extrdcliv,extr/dt=inputsplan+inputart−Qhcliv,extr/Kliv, extr−b−CLuptake· cliv,extr−CLpassive(cliv,extr−fu,liv, cell cliv,cell)Vliv,celldcliv,cell/dt=CLuptake cliv,extr+CLpassive(cliv,extr−fu,liv, cell cliv,cell)−CLbiliary fu,liv,cell cliv,cell […]
cliv,extr , cliv,cell [μmol/L] and Vliv,extr , Vliv,int [L] are the gadoxetate concentrations ( c ) and volumes ( V ) of the liver extracellular space and hepatocytes, respectively. […] Details of the model development, relations between concentrations in PBPK compartments and measured ΔR1 , parameters identification, and performance were described previously. […]

SMILES strings stand for the structures.

With `C=C[C@@H]1C[C@]1(NC(=O)[C@@H]1C[C@@H](Oc2ncc(OC)c3ccc(Cl)cc23)CN1C(=O)[C@@H](NC(=O)OC(C)(C)C)C(C)(C)C)C(=O)NS(=O)(=O)C1CC1` [Asunaprevir], the “AUCR of rosuvastatin (presence vs absence of inhibitor)” value in series [1] is on record as below 2 fold.

Regarding `CO[C@H]1/C=C/O[C@@]2(C)Oc3c(C)c(O)c4c(O)c(c(/C=N/N5CCN(C)CC5)c(O)c4c3C2=O)NC(=O)/C(C)=C\C=C\[C@H](C)[C@H](O)[C@@H](C)[C@@H](O)[C@@H](C)[C@H](OC(C)=O)[C@@H]1C` [Rifampicin], the IC50 in series [2] (read-out: IC50 (µM) rOatp1a4) is 1.3 µM. Also, in series [2] (read-out: Ki (µM) rOatp1a4), the Ki is 2.9 µM.

`CCOc1ccc(C[C@@H](CN(CCN(CC(=O)[O-])CC(=O)[O-])CC(=O)[O-])N(CC(=O)[O-])CC(=O)[O-])cc1.[Gd+3].[H+].[H+]` [gadoxetate, Gadoxetate]: the “CLbiliary, new value in unified units” value in series [3] (total concentration in hepatocytes) stood at 0.756 mL/min. Also, in series [3] (total concentration in the liver interstitial fluid), the “CLuptake, new value in unified units” value is 36.2 mL/min.

By IC50 is commonly meant the point on the concentration scale where inhibition reaches its midpoint. In general, Ki refers to the equilibrium dissociation constant of an inhibitor or competing ligand from its target.
